PubChem BioAssay AID1963851 (Molecular Pharmacology Branch, DTP, NCI, 2024)
pIC50: −log10 of the molar value.

Tested on: 188146-221-R-J1-PDC complex spheroid viability
Experiment: Anticancer human tumor 188146-221-R-J1-PDC patient-derived colon adenocarcinoma cell line growth inhibition [POLQ]
Conditions: for pIC50: curve of first compound; for viability, T/C: stronger effect = lower value
Outline: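 Patient-derived tumour cells were co-cultured with HUVEC and mesenchymal stem cells as multicellular spheroids at 37 °C. They were treated with POLQ inhibitors (novobiocin, ART-558, RP6685) alone or combined with other agents. Top concentrations were at or near clinical Cmax (otherwise 10 microM; SN-38 at 1 microM), decreasing in half-log steps.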

[1] = second compound 0.0316 µM, first compound 0.0316 µM
[2] = second compound 0.0316 µM, first compound 0.1 µM
[3] = second compound 0.0316 µM, first compound 0.316 µM
[4] = second compound 0.0316 µM, first compound 1 µM
[5] = second compound 0.0316 µM, first compound 3.16 µM
[6] = second compound 0.0316 µM, first compound 10 µM
[7] = second compound 0.1 µM, first compound 0.0316 µM
[8] = second compound 0.1 µM, first compound 0.1 µM
[9] = second compound 0.1 µM, first compound 0.316 µM
[10] = second compound 0.1 µM, first compound 1 µM
[11] = second compound 0.1 µM, first compound 3.16 µM
[12] = second compound 0.1 µM, first compound 10 µM
[13] = second compound 0.316 µM, first compound 0.0316 µM
[14] = second compound 0.316 µM, first compound 0.1 µM
[15] = second compound 0.316 µM, first compound 0.316 µM
[16] = second compound 0.316 µM, first compound 1 µM
[17] = second compound 0.316 µM, first compound 3.16 µM
[18] = second compound 0.316 µM, first compound 10 µM
[19] = second compound 1 µM, first compound 0.0316 µM
[20] = second compound 1 µM, first compound 0.1 µM
[21] = second compound 1 µM, first compound 0.316 µM
[22] = second compound 1 µM, first compound 1 µM
[23] = second compound 1 µM, first compound 3.16 µM
[24] = second compound 1 µM, first compound 10 µM
[25] = second compound 3.16 µM, first compound 0.0316 µM
[26] = second compound 3.16 µM, first compound 0.1 µM
[27] = second compound 3.16 µM, first compound 0.316 µM
[28] = second compound 3.16 µM, first compound 1 µM
[29] = second compound 3.16 µM, first compound 3.16 µM
[30] = second compound 3.16 µM, first compound 10 µM
[31] = second compound 10 µM, first compound 0.0316 µM
[32] = second compound 10 µM, first compound 0.1 µM
[33] = second compound 10 µM, first compound 0.316 µM
[34] = second compound 10 µM, first compound 1 µM
[35] = second compound 10 µM, first compound 3.16 µM
[36] = second compound 10 µM, first compound 10 µM
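Note: spheroids exposed to compounds for seven days.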
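Throughout, for viability, T/C: 100% = DMSO vehicle control viability.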

## CNCc1ccc(-c2[nH]c3cc(F)cc4c3c2CCNC4=O)cc1 + Cc1cccc(N(C)C(=O)C2C(O)CCN2c2nc(C)cc(C(F)(F)F)c2C#N)c1
Second compound 0.0316 µM
  pIC50: < 5.00
Second compound 0.1 µM
  pIC50: < 5.00
Second compound 0.316 µM
  pIC50: < 5.00
Second compound 1 µM
  pIC50: < 5.00
Second compound 3.16 µM
  pIC50: < 5.00
Second compound 10 µM
  pIC50: < 5.00
[1]
  viability, T/C: 98.6%
[2]
  viability, T/C: 103%
[3]
  viability, T/C: 101%
[4]
  viability, T/C: 97.3%
[5]
  viability, T/C: 114%
[6]
  viability, T/C: 105%
[7]
  viability, T/C: 108%
[8]
  viability, T/C: 98.6%
[9]
  viability, T/C: 102%
[10]
  viability, T/C: 104%
[11]
  viability, T/C: 108%
[12]
  viability, T/C: 112%
[13]
  viability, T/C: 112%
[14]
  viability, T/C: 105%
[15]
  viability, T/C: 106%
[16]
  viability, T/C: 103%
[17]
  viability, T/C: 106%
[18]
  viability, T/C: 108%
[19]
  viability, T/C: 109%
[20]
  viability, T/C: 103%
[21]
  viability, T/C: 97.7%
[22]
  viability, T/C: 109%
[23]
  viability, T/C: 100%
[24]
  viability, T/C: 110%
[25]
  viability, T/C: 112%
[26]
  viability, T/C: 112%
[27]
  viability, T/C: 95.1%
[28]
  viability, T/C: 84.1%
[29]
  viability, T/C: 112%
[30]
  viability, T/C: 110%
[31]
  viability, T/C: 99.4%
[32]
  viability, T/C: 83.2%
[33]
  viability, T/C: 100%
[34]
  viability, T/C: 93.8%
[35]
  viability, T/C: 106%
[36]
  viability, T/C: 101%

## CC1COCCN1c1cc(-c2ccnn2C)c2ccnc(-c3ccn[nH]3)c2n1 (centres undefined) + Cc1cccc(N(C)C(=O)C2C(O)CCN2c2nc(C)cc(C(F)(F)F)c2C#N)c1
Second compound 0.0316 µM
  pIC50: 6.69
Second compound 0.1 µM
  pIC50: 6.64
Second compound 0.316 µM
  pIC50: 6.61
Second compound 1 µM
  pIC50: 6.47
Second compound 3.16 µM
  pIC50: 6.63
Second compound 10 µM
  pIC50: 6.78
[1]
  viability, T/C: 86.4%
[2]
  viability, T/C: 63.6%
[3]
  viability, T/C: 43.3%
[4]
  viability, T/C: 21.8%
[5]
  viability, T/C: 21.6%
[6]
  viability, T/C: 17.8%
[7]
  viability, T/C: 87.6%
[8]
  viability, T/C: 72.7%
[9]
  viability, T/C: 39.3%
[10]
  viability, T/C: 26.5%
[11]
  viability, T/C: 17%
[12]
  viability, T/C: 15.7%
[13]
  viability, T/C: 92.9%
[14]
  viability, T/C: 79.8%
[15]
  viability, T/C: 40%
[16]
  viability, T/C: 26.5%
[17]
  viability, T/C: 18.8%
[18]
  viability, T/C: 13.8%
[19]
  viability, T/C: 75.8%
[20]
  viability, T/C: 73.9%
[21]
  viability, T/C: 50.3%
[22]
  viability, T/C: 26.4%
[23]
  viability, T/C: 17.5%
[24]
  viability, T/C: 15.8%
[25]
  viability, T/C: 74.9%
[26]
  viability, T/C: 67.6%
[27]
  viability, T/C: 44%
[28]
  viability, T/C: 20%
[29]
  viability, T/C: 23.3%
[30]
  viability, T/C: 16.6%
[31]
  viability, T/C: 67.9%
[32]
  viability, T/C: 51.5%
[33]
  viability, T/C: 47.8%
[34]
  viability, T/C: 25.1%
[35]
  viability, T/C: 21.3%
[36]
  viability, T/C: 20.2%
